Patent US10220040B2, “Compounds, compositions and methods useful for cholesterol mobilization” (Cerenis Therapeutics Holding SA, priority 2010, dated 2019)

How the values were obtained:
[1] = test system: mice; test: Bile acids physiology after one week daily oral treatment; type: in vivo; conditions: oral gavage once daily for a week (0.03 mg/kg)
Method: FIG. 13A-B: Single-dose effect of Compound IIa on bile acids secretion after one week treatment. Mice were treated daily with Compound IIa (0.03 mg/kg) by oral gavage. On the day of sacrifice, the mice were fasted for 3 hours followed by an oral gavage (same concentration). 4 hours later the bile content was analyzed. FIG. 13A: data are expressed as the concentration of bile acids. FIG. 13B: data are expressed as the pool of bile acids per mouse weight (*p<0.05). Group of animals n=10.
In the previous experiments, illustrative compounds of the invention were administrated once and the impact on bile physiology was measured after 6 hours. Compound IIa was administrated by oral gavage once daily for a week to allow observation of the consequences on bile physiology of a longer treatment. On the day of sacrifice, the conditions were similar to the dose response experiments. The net impact of Compound IIa on the bile secretion was observed.

[2] = test system: C57Bl6 mice; test: Bile acids physiology after IV injection in mice; type: in vivo; conditions: intravenously 10 nmol/kg, after 4 h; effect slightly higher than with Cangrelor
Method: FIG. 5A-B: Single-dose effect of the illustrative compounds of the invention on bile acids secretion after IV injection. Mice were fasted for 2 hours and then injected in the caudal vein with the selected molecules (10 nmol/kg) in PBS solution (100 μl). 4 hours later the bile content was analyzed. FIG. 5A. Data are expressed as the concentration of bile acids. FIG. 5B. Data are expressed as the pool of bile acids per mouse (*p<0.05, **p<0.005, ***p<0.0001). Group of animals n=5.
Bile acids are derived from cholesterol and their synthesis is the predominant pathway for catabolism of cholesterol. The HDL uptake by the liver is directly connected with the bile acids secretion and the bile cholesterol clearance. […] An increase of bile acids concentration as well as of the bile volume was observed. All the compounds responded as well as or even better than the control compound (Reference Compound).
Bile acids were diluted in PBS (1:5000) and the concentration was measured according to the manufacturer protocol with slight modifications. Concentrations of bile acids in the standard curve were varied from […] and the enzymatic reaction was performed for 20 minutes. 4 μl of 1:5000 bile dilution was used for concentration determination.

CN(C)c1ncc(CN2CCC(c3cc(O)nc(N4CCOCC4)n3)CC2)cn1 [Compound IIa, 6-[1-(2-Dimethylaminopyrimidin-5-ylmethyl)-piperidin-4-yl]-2-morpholin-4-yl-pyrimidin-4-ol]
volume of the individual bile compared to vehicle treatment [1]: significant increase | bile acids (BA) and free cholesterol secretion into bile [2]: increase
